From ChEMBL document CHEMBL1201862, “PubChem BioAssay data set” (2004)
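48-hour exposure; five concentrations; linearly interpolated endpoints. GI50: concentration for 50% inhibition of growth.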 The source made the active and inactive calls. Cut-off read from the data, not from the text of the source: active = GI50 up to about 1.1 µM and inactive = higher.

Legend:
Experiment in all cases: NCI-60 cell line screen, 48 h
[1] = system: 786-0
[2] = system: A549
[3] = system: ACHN
[4] = system: CAKI-1
[5] = system: CCRF-CEM
[6] = system: COLO 205
[7] = system: DLD-1
[8] = system: DMS-114
[9] = system: DMS-273
[10] = system: EKVX
[11] = system: HCT-116
[12] = system: HL-60
[13] = system: HOP-18
[14] = system: HOP-62
[15] = system: HOP-92
[16] = system: HT-29
[17] = system: IGROV-1
[18] = system: K562
[19] = system: KM-20L2
[20] = system: KM12
[21] = system: LOX IMVI
[22] = system: LXFL 529
[23] = system: M14
[24] = system: M19-MEL
[25] = system: MOLT-4
[26] = system: NCI-H226
[27] = system: NCI-H23
[28] = system: NCI-H460
[29] = system: NCI-H522
[30] = system: OVCAR-3
[31] = system: OVCAR-4
[32] = system: OVCAR-5
[33] = system: OVCAR-8
[34] = system: RPMI-8226
[35] = system: RXF 393
[36] = system: RXF 631
[37] = system: SF-268
[38] = system: SF-295
[39] = system: SF-539
[40] = system: SK-MEL-28
[41] = system: SK-MEL-2
[42] = system: SK-MEL-5
[43] = system: SK-OV-3
[44] = system: SN12C
[45] = system: SNB-19
[46] = system: SNB-75
[47] = system: SNB-78
[48] = system: SR
[49] = system: SW-620
[50] = system: TK-10
[51] = system: U-251
[52] = system: UACC-257
[53] = system: UACC-62
[54] = system: UO-31
[55] = system: XF498
[56] = system: A498
[57] = system: HCC 2998
[58] = system: HCT-15
[59] = system: Malme-3M

CCOC(=O)/C(C#N)=C\Sc1ccccc1
GI50 [1]: 15.3 µM (inactive) | GI50 [2]: 10.4 µM (inactive) | GI50 [3]: 17.1 µM (inactive) | GI50 [4]: 22.3 µM (inactive) | GI50 [5]: 7.83 µM (inactive) | GI50 [6]: 20.1 µM (inactive) | GI50 [7]: 18.1 µM (inactive) | GI50 [8]: 13.6 µM (inactive) | GI50 [9]: 16.3 µM (inactive) | GI50 [10]: 27.2 µM (inactive) | GI50 [11]: 16.8 µM (inactive) | GI50 [12]: 7.23 µM (inactive) | GI50 [13]: > 100 µM (inactive) | GI50 [14]: 36.1 µM (inactive) | GI50 [15]: 37.2 µM (inactive) | GI50 [16]: 26 µM (inactive) | GI50 [17]: 10.2 µM (inactive) | GI50 [18]: 18.3 µM (inactive) | GI50 [19]: 22.8 µM (inactive) | GI50 [20]: 15.9 µM (inactive) | GI50 [21]: 7.46 µM (inactive) | GI50 [22]: 15 µM (inactive) | GI50 [23]: 15.9 µM (inactive) | GI50 [24]: 22 µM (inactive) | GI50 [25]: 5.05 µM (inactive) | GI50 [26]: 16.7 µM (inactive) | GI50 [27]: 28.3 µM (inactive) | GI50 [28]: 26.4 µM (inactive) | GI50 [29]: 3.21 µM (inactive) | GI50 [30]: 17.4 µM (inactive) | GI50 [31]: 26.7 µM (inactive) | GI50 [32]: 24.7 µM (inactive) | GI50 [33]: 13.7 µM (inactive) | GI50 [34]: 13.7 µM (inactive) | GI50 [35]: 16.8 µM (inactive) | GI50 [36]: 15.7 µM (inactive) | GI50 [37]: 3.73 µM (inactive) | GI50 [38]: 20 µM (inactive) | GI50 [39]: 15.8 µM (inactive) | GI50 [40]: 14.7 µM (inactive) | GI50 [41]: 25 µM (inactive) | GI50 [42]: 22.3 µM (inactive) | GI50 [43]: 36.6 µM (inactive) | GI50 [44]: 14 µM (inactive) | GI50 [45]: 33.5 µM (inactive) | GI50 [46]: 18.8 µM (inactive) | GI50 [47]: 28.1 µM (inactive) | GI50 [48]: 4.71 µM (inactive) | GI50 [49]: 25.9 µM (inactive) | GI50 [50]: 32.4 µM (inactive) | GI50 [51]: 11.3 µM (inactive) | GI50 [52]: 24.7 µM (inactive) | GI50 [53]: 16.1 µM (inactive) | GI50 [54]: 9.2 µM (inactive) | GI50 [55]: 28.1 µM (inactive)

C/C=C/C1(NS(=O)(=O)c2ccc(C)cc2)CCC(C(C)(C)C)CC1 (configuration not stated)
GI50 [1]: 19 µM (inactive) | GI50 [56]: 24 µM (inactive) | GI50 [2]: 40.7 µM (inactive) | GI50 [3]: 36.2 µM (inactive) | GI50 [4]: 28.8 µM (inactive) | GI50 [5]: 19.5 µM (inactive) | GI50 [6]: 20 µM (inactive) | GI50 [7]: 35.8 µM (inactive) | GI50 [8]: 27 µM (inactive) | GI50 [9]: 16 µM (inactive) | GI50 [10]: 23 µM (inactive) | GI50 [57]: 16.2 µM (inactive) | GI50 [11]: 20.1 µM (inactive) | GI50 [58]: 28.6 µM | GI50 [12]: 23.4 µM (inactive) | GI50 [13]: 34.9 µM (inactive) | GI50 [14]: 22 µM (inactive) | GI50 [15]: 19.7 µM (inactive) | GI50 [16]: 18 µM (inactive) | GI50 [17]: 28.8 µM (inactive) | GI50 [18]: 35.5 µM (inactive) | GI50 [19]: 20.1 µM (inactive) | GI50 [20]: 20.8 µM (inactive) | GI50 [22]: 37.5 µM (inactive) | GI50 [23]: 17.3 µM (inactive) | GI50 [24]: 19.7 µM (inactive) | GI50 [25]: 16.5 µM (inactive) | GI50 [59]: 22.2 µM (inactive) | GI50 [26]: 20.6 µM (inactive) | GI50 [27]: 18.8 µM (inactive) | GI50 [28]: 21.7 µM (inactive) | GI50 [29]: 11.6 µM (inactive) | GI50 [30]: 17.7 µM (inactive) | GI50 [31]: 23 µM (inactive) | GI50 [32]: 20.7 µM (inactive) | GI50 [33]: 36.1 µM (inactive) | GI50 [34]: 21.6 µM (inactive) | GI50 [35]: 24.3 µM (inactive) | GI50 [36]: 24.7 µM (inactive) | GI50 [37]: 29.6 µM (inactive) | GI50 [38]: 26.2 µM (inactive) | GI50 [39]: 21.4 µM (inactive) | GI50 [41]: 17.3 µM (inactive) | GI50 [42]: 17.5 µM (inactive) | GI50 [43]: 27.4 µM (inactive) | GI50 [44]: 18.2 µM (inactive) | GI50 [45]: 42.2 µM (inactive) | GI50 [46]: 53.6 µM (inactive) | GI50 [47]: 25.6 µM (inactive) | GI50 [48]: 13.6 µM (inactive) | GI50 [49]: 26.1 µM (inactive) | GI50 [50]: 35.8 µM (inactive) | GI50 [51]: 16.1 µM (inactive) | GI50 [52]: 25.4 µM (inactive) | GI50 [53]: 19 µM (inactive) | GI50 [54]: 25.4 µM (inactive) | GI50 [55]: 20.2 µM (inactive)
